Test results published in ChEMBL document CHEMBL5338793, “Discovery of Pyrimidinediamine Derivatives as Potent Methuosis Inducers for the Treatment of Triple-Negative Breast Cancer” (J Med Chem, 2023).
Active and inactive are the calls of the source. The calls are words filed in the database; no cut-off is given here.

Key:
HCC1806 [1] = assay: Antiproliferative activity against human HCC1806 cells assessed as inhibition of cell proliferation at 2 uM incubated for 24 hrs by SRB assay relative to control; format: functional
HCC1806 [2] = assay: Antiproliferative activity against human HCC1806 cells assessed as inhibition of cell proliferation incubated for 24 hrs by SRB assay; format: functional, cell-based; conditions: HCC1806, 24 h
HCC1806 [3] = assay: Antiproliferative activity against human HCC1806 cells assessed as inhibition of cell proliferation at 1 uM incubated for 24 hrs by SRB assay relative to control; format: functional
184B5 [4] = assay: Cytotoxicity against human 184B5 cells assessed as reduction in cell viability at 2 uM incubated for 24 hrs by SRB assay; format: toxicity, cell-based; conditions: 184b5, 24 h
HCC1806 [5] = assay: Induction of morphological changes in human HCC1806 cells assessed as rate of intracellular vacuolization at 1 uM incubated for 24 hrs by microscopic analysis relative to control; format: functional
HCC1806 [6] = assay: Antiproliferative activity against human HCC1806 cells assessed as inhibition of cell proliferation at 1 uM pretreated with Z-VAD-FMK followed by compound addition measured after 24 hrs by SRB assay; format: functional, cell-based
HCC1806 [7] = assay: Upregulation of Lamp1 level in human HCC1806 cells at 1.5 uM incubated for 24 hrs by immunofluorescence microscopy; format: functional, cell-based
MDA-MB-468 [8] = assay: Antiproliferative activity against human MDA-MB-468 cells assessed as inhibition of cell proliferation at 1 uM measured after 24 hrs in presence of 3-MA by SRB assay; format: functional, cell-based
HCC1806 [9] = assay: Antiproliferative activity against human HCC1806 cells assessed as inhibition of cell proliferation at 1.5 uM pretreated with Baf-A1 followed by compound addition measured after 24 hrs by SRB assay; format: functional, cell-based
MDA-MB-468 [10] = assay: Antiproliferative activity against human MDA-MB-468 cells assessed as inhibition of cell proliferation at 1.5 uM pretreated with Baf-A1 followed by compound addition measured after 24 hrs by SRB assay; format: functional, cell-based
HCC1806 [11] = assay: Antiproliferative activity against human HCC1806 cells assessed as inhibition of cell proliferation at 1 uM measured after 24 hrs in presence of 3-MA by SRB assay; format: functional, cell-based
HCC1806 [12] = assay: Induction of macropinocytosis in human HCC1806 cells at 1.5 uM incubated for 24 hrs by LY staining based live cell imaging analysis; format: functional
MDA-MB-468 [13] = assay: Induction of morphological changes in human MDA-MB-468 cells assessed as intracellular vacuolization at 1 uM measured after 24 hrs in presence of 3-MA by microscopic analysis; format: functional, cell-based
HCC1806 [14] = assay: Upregulation of Lamp1 level in human HCC1806 cells incubated for 24 hrs by Western blot analysis; format: functional, cell-based; conditions: dose <= 1.5 µM
HCC1806 [15] = assay: Upregulation of Rab7 level in human HCC1806 cells at 1.5 uM incubated for 24 hrs by immunofluorescence microscopy; format: functional, cell-based
MDA-MB-468 [16] = assay: Induction of macropinocytosis in human MDA-MB-468 cells at 1.5 uM incubated for 24 hrs by LY staining based live cell imaging analysis; format: functional
HCC1806 [17] = assay: Induction of morphological changes in human HCC1806 cells assessed as intracellular vacuolization at 1.5 uM pretreated with Baf-A1 followed by compound addition measured after 24 hrs by microscopic analysis; format: functional, cell-based
HCC1806 [18] = assay: Induction of morphological changes in human HCC1806 cells assessed as intracellular vacuolization at 1 uM measured after 24 hrs in presence of 3-MA by microscopic analysis; format: functional, cell-based
[19] = Toxicity in mouse xenografted with human HCC1806 cells assessed as effect on CR level at 2.5 to 5 mg/kg, ip administered every 2 days for 15 days; format: organism-based; conditions: in vivo, 360 h, dose 2.5-5 mg/kg, time 15 day
MDA-MB-468 [20] = assay: Antiproliferative activity against human MDA-MB-468 cells assessed as inhibition of cell proliferation incubated for 24 hrs by SRB assay; format: functional, cell-based; conditions: MDA-MB-468, 24 h
MDA-MB-468 [21] = assay: Induction of morphological changes in human MDA-MB-468 cells assessed as intracellular vacuolization at 1 uM pretreated with Z-VAD-FMK followed by compound addition measured after 24 hrs by microscopic analysis; format: functional, cell-based
[22] = Toxicity in mouse xenografted with human HCC1806 cells assessed as effect on AST level at 2.5 to 5 mg/kg, ip administered every 2 days for 15 days; format: organism-based; conditions: in vivo, 360 h, dose 2.5-5 mg/kg, time 15 day
[23] = Toxicity in mouse xenografted with human HCC1806 cells assessed as body weight change at 2.5 to 5 mg/kg, ip administered every 2 days for 15 days; format: organism-based; conditions: in vivo, 360 h, dose 2.5-5 mg/kg, time 15 day
MDA-MB-468 [24] = assay: Upregulation of Rab7 level in human MDA-MB-468 cells at 1.5 uM incubated for 24 hrs by immunofluorescence microscopy; format: functional, cell-based
MDA-MB-468 [25] = assay: Induction of morphological changes in human MDA-MB-468 cells assessed as intracellular vacuolization at 1.5 uM pretreated with Baf-A1 followed by compound addition measured after 24 hrs by microscopic analysis; format: functional, cell-based
HCC1806 [26] = assay: Antitumor activity against human HCC1806 cells xenografted in mouse assessed as tumor growth inhibition at 2.5 to 5 mg/kg, ip administered every 2 days for 15 days; format: functional, organism-based; conditions: dose 2.5-5 mg/kg, time 15.0 day
[27] = Toxicity in mouse xenografted with human HCC1806 cells assessed as drug tolerance at 2.5 to 5 mg/kg, ip administered every 2 days for 15 days; format: organism-based; conditions: in vivo, 360 h, dose 2.5-5 mg/kg, time 15 day
MDA-MB-468 [28] = assay: Induction of morphological changes in human MDA-MB-468 cells assessed as intracellular vacuolization incubated for 24 hrs by microscopic analysis; format: functional, cell-based; conditions: dose 0.5-1.5 µM
MDA-MB-468 [29] = assay: Upregulation of Lamp1 level in human MDA-MB-468 cells at 1.5 uM incubated for 24 hrs by immunofluorescence microscopy; format: functional, cell-based
MDA-MB-468 [30] = assay: Upregulation of Rab7 level in human […] cells incubated for 24 hrs by Western blot analysis; format: functional, cell-based; conditions: dose <= 1.5 µM
HCC1937 = assay: Antiproliferative activity against human HCC1937 cells assessed as inhibition of cell proliferation incubated for 24 hrs by SRB assay; format: functional, cell-based; conditions: HCC1937, 24 h
[31] = Toxicity in mouse xenografted with human HCC1806 cells assessed as effect on ALT level at 2.5 to 5 mg/kg, ip administered every 2 days for 15 days; format: organism-based; conditions: in vivo, 360 h, dose 2.5-5 mg/kg, time 15 day
HCC1806 [32] = assay: Induction of morphological changes in human HCC1806 cells assessed as intracellular vacuolization at 0.5 uM incubated for 24 hrs by microscopic analysis; format: functional, cell-based
184B5 [33] = assay: Induction of morphological changes in human 184B5 cells assessed as intracellular vacuolization upto 2 uM incubated for 24 hrs by microscopic analysis; format: toxicity, cell-based; conditions: 184b5, 24 h
MDA-MB-468 [34] = assay: Induction of morphological changes in human MDA-MB-468 cells assessed as intracellular vacuolization at 1 uM incubated for 24 hrs by microscopic analysis; format: functional, cell-based
HCC1806 [35] = assay: Upregulation of p62 level in human HCC1806 cells incubated for 24 hrs by Western blot analysis; format: functional, cell-based; conditions: dose <= 1.5 µM
MDA-MB-468 [36] = assay: Upregulation of Lamp1 level in human MDA-MB-468 cells incubated for 24 hrs by Western blot analysis; format: functional, cell-based; conditions: dose <= 1.5 µM
HCC1806 [37] = assay: Upregulation of LC3-II level in human HCC1806 cells incubated for 24 hrs by Western blot analysis; format: functional, cell-based; conditions: dose <= 1.5 µM
HCC1806 [38] = assay: Induction of morphological changes in human HCC1806 cells assessed as intracellular vacuolization at 1 uM pretreated with Z-VAD-FMK followed by compound addition measured after 24 hrs by microscopic analysis; format: functional, cell-based
HCC1806 [39] = assay: Induction of morphological changes in human HCC1806 cells assessed as intracellular vacuolization at 1.5 uM measured after 12 to 24 hrs by microscopic analysis; format: functional, cell-based; conditions: time 12-24 hrs
MDA-MB-468 [40] = assay: Induction of morphological changes in human MDA-MB-468 cells assessed as intracellular vacuolization at 0.5 uM incubated for 24 hrs by microscopic analysis; format: functional, cell-based
MDA-MB-468 [41] = assay: Antiproliferative activity against human MDA-MB-468 cells assessed as inhibition of cell proliferation at 1 uM pretreated with Z-VAD-FMK followed by compound addition measured after 24 hrs by SRB assay; format: functional, cell-based
HCC1806 [42] = assay: Upregulation of Rab7 level in human HCC1806 cells incubated for 24 hrs by Western blot analysis; format: functional, cell-based; conditions: dose <= 1.5 µM
HCC1806 [43] = assay: Induction of morphological changes in human HCC1806 cells assessed as intracellular vacuolization incubated for 24 hrs by microscopic analysis; format: functional, cell-based; conditions: dose 0.5-1.5 µM

COc1cc(NC(=O)c2cccc(Br)n2)ccc1Nc1nc(N2CCNCC2)ncc1OC
inhibition at 2 µM (HCC1806 [1]): 10.4%
IC50 (HCC1806 [2]): 970 nM
inhibition at 1 µM (HCC1806 [3]): 97.4%
Activity (184B5 [4]): Toxic
Activity (HCC1806 [5]): 30.17%

COc1cc(Nc2nc(N3CCNCC3)ncc2Br)ccc1NC(=O)c1cccc(Br)n1
inhibition at 2 µM (HCC1806 [1]): 38.1%
IC50 (HCC1806 [2]): 420 nM
inhibition at 1 µM (HCC1806 [3]): 99.3%
Activity (184B5 [4]): Non-Toxic
Activity (HCC1806 [5]): 65%

COc1cc(Nc2nc(N3CCNCC3)ncc2Cl)ccc1NC(=O)c1cccc(Br)n1
inhibition at 2 µM (HCC1806 [1]): 10.7%
IC50 (HCC1806 [2]): 590 nM
inhibition at 1 µM (HCC1806 [3]): 99.2%
Activity (184B5 [4]): Toxic
Activity (HCC1806 [5]): 42.33%

COc1cnc(N2CCNCC2)nc1Nc1ccc(NC(=O)c2cccc(Cl)n2)cc1C(F)(F)F
inhibition at 2 µM (HCC1806 [1]): 52.9%
IC50 (HCC1806 [2]): 370 nM
inhibition at 1 µM (HCC1806 [3]): 94.1%
Activity (184B5 [4]): Non-Toxic
Activity (HCC1806 [5]): 36.83%

COc1cc(Nc2nc(N3CCNCC3)ncc2SC)ccc1NC(=O)c1cccc(Br)n1
Activity (HCC1806 [6]): Active
Activity (HCC1806 [7]): Active
Activity (MDA-MB-468 [8]): Active
Activity (HCC1806 [9]): inactive
Activity (MDA-MB-468 [10]): inactive
Activity (HCC1806 [11]): Active
Activity (HCC1806 [12]): Active
Activity (MDA-MB-468 [13]): Active
Activity (HCC1806 [14]): Dose-Dependent Effect
Activity (HCC1806 [15]): Active
Activity (MDA-MB-468 [16]): Active
Activity (HCC1806 [17]): inactive
Activity (HCC1806 [18]): Active
Activity [19]: Non-Toxic
inhibition at 2 µM (HCC1806 [1]): 7.07%
IC50 (MDA-MB-468 [20]): 920 nM
Activity (MDA-MB-468 [21]): Active
Activity [22]: Non-Toxic
Activity [23]: Non-Toxic
Activity (MDA-MB-468 [24]): Active
Activity (MDA-MB-468 [25]): inactive
Activity (HCC1806 [26]): Active
Activity [27]: Non-Toxic
Activity (MDA-MB-468 [28]): Dose-Dependent Effect
Activity (MDA-MB-468 [29]): Active
Activity (MDA-MB-468 [30]): Dose-Dependent Effect
IC50 (HCC1937): 1030 nM
Activity [31]: Non-Toxic
IC50 (HCC1806 [2]): 700 nM
Activity (HCC1806 [32]): Active
Activity (184B5 [33]): Non-Toxic
Activity (MDA-MB-468 [34]): Active
inhibition at 1 µM (HCC1806 [3]): 99.5%
Activity (HCC1806 [35]): Dose-Dependent Effect
Activity (MDA-MB-468 [36]): Dose-Dependent Effect
Activity (HCC1806 [37]): Dose-Dependent Effect
Activity (184B5 [4]): Toxic
Activity (HCC1806 [38]): Active
Activity (HCC1806 [39]): Active
Activity (MDA-MB-468 [40]): Active
Activity (MDA-MB-468 [41]): Active
Activity (HCC1806 [42]): Dose-Dependent Effect
Activity (HCC1806 [5]): 78.3%
Activity (HCC1806 [43]): Dose-Dependent Effect

COc1cnc(N2CCNCC2)nc1Nc1ccc(NC(=O)c2cccc(Br)n2)cc1C(F)(F)F
inhibition at 2 µM (HCC1806 [1]): 71.7%
IC50 (HCC1806 [2]): 580 nM
inhibition at 1 µM (HCC1806 [3]): 99%
Activity (184B5 [4]): Non-Toxic
Activity (HCC1806 [5]): 41.5%
